A short description of data set [1]: Maximum tolerated dose. The class given is in vivo, Balb/c mice. Conditions: Balb/c, mouse, in vivo; mice, ip; above it the compound becomes hypercalcemic.
The test system of data set [2] is endometriotic lesions. The experiment in a line: In vivo model of endometriosis (lesion weight). Also noted: species or system Balb/c mice. Conditions: Example 2; each compound at its maximum tolerated level, ip once a day, 5 days a week for two weeks. The protocol: Balb/c donor mice were injected with estrogen (Estradiol AMSA; 3 ug/mouse) and one week later were sacrificed and the uterus was removed, the two horns isolated and reduced to small fragments. The fragments derived from the isolated uterine horns were resuspended in saline with ampicillin (1 mg/ml) and then injected into the peritoneum of two recipient Balb/c mice, previously anesthesized, through a 0.5 cm incision in the abdominal wall. […] Antibiotic (ampicillin 1 mg/ml) was administered on the day of the surgery and on the day after. […] […] Lesions can be identified as translucid isolated or grouped cysts mainly found on the abdominal wall, on the pancreas, and around the uterus. In some cases the lesions are necrotic. The lesions were carefully removed and put on a glass slide to dry for 48 hours, and then were weighed. In other experiments lesions are transferred to a lysis solution and mRNA isolated for gene expression analysis. For immunohistochemical analysis, lesions were frozen immediately after isolation.
Balb/c donor mice were injected with estrogen (Estradiol AMSA; 3 ug/mouse) and one week later were sacrificed and the uterus was removed, the two horns isolated and reduced to small fragments. The fragments derived from the isolated uterine horns were resuspended in saline with ampicillin (1 mg/ml) and then injected into the peritoneum of two recipient Balb/c mice, previously anesthetised, through a 0.5 cm incision in the abdominal wall. Antibiotic (ampicillin 1 mg/ml) was administered on the day of the surgery and on the day after. […] Dosage levels of the test compounds were at the maximum tolerated levels for the compound in question, i.e. 1-alpha-fluoro-25-hydroxy-16,23E-diene-26,27-bishomo-20-epi-cholecalciferol (Compound A) 100 ug/kg, calcitriol (Compound B) 0.3 ug/kg and 1,25-dihydroxy-21-(3-hydroxy-3-methylbutyl)-19-nor-cholecalciferol (Compound C) 3 ug/kg.
[…] Lesions can be identified as translucid isolated or grouped cysts mainly found on the abdominal wall, on the pancreas, and around the uterus. In some cases the lesions are necrotic. The lesions were carefully removed and put on a glass slide to dry for 48 hours, and then were weighed.
Balb/c donor mice were injected with estrogen (Estradiol AMSA; 3 ug/mouse) and one week later were sacrificed and the uterus was removed, the two horns isolated and reduced to small fragments. The fragments derived from the isolated uterine horns were resuspended in saline with ampicillin (1 mg/ml) and then injected into the peritoneum of recipient Balb/c mice, previously anesthetised, through a 0.5 cm incision in the abdominal wall. Antibiotic (ampicillin 1 mg/ml) was administered on the day of the surgery and on the day after. […]
[…] Lesions can be identified as translucid isolated or grouped cysts mainly found on the abdominal wall, on the pancreas, and around the uterus. In some cases the lesions are necrotic. The lesions were carefully removed and put on a glass slide to dry for 48 hours, and then were weighed. At least 10 test animals were used in each group.
Further experiments were performed using Compound A at 100 ug/kg but varying the time at which administration of the vitamin D compound was initiated and the time point at which administration was ceased. Specifically: (i) administration for 1 week prior to injection of the uterine fragments (ii) administration for 2 weeks subsequent to injection of the uterine fragments (iii) administration for 1 week prior and 2 weeks subsequent to injection of the uterine fragments (iv) administration for 2 weeks, initiated two days subsequent to injection of the uterine fragments (v) administration for 2 weeks, initiated two weeks subsequent to injection of the uterine fragments. In these experiments, subjects were sacrificed at the later of two weeks post injection or the end of the treatment period as appropriate.

Consider `C=C1/C(=C\C=C2/CCC[C@]3(C)[C@@H]([C@H](C)CCCC(C)(C)O)CC[C@@H]23)C[C@@H](O)C[C@@H]1O` [Compound B, calcitriol, reference compound], for which the MTD (as a rule, the highest dose tested that stayed within the study's limit of toxicity) in data set [1] was 0.3 µg/kg. Moreover, the “lesion weight, treated versus control (vehicle only), statistical analysis” value in data set [2] is reported as “significant reduction in lesion weight”.

For `CC(C)(O)CCCC(CCCC(C)(C)O)[C@H]1CC[C@H]2/C(=C/C=C3C[C@@H](O)C[C@H](O)C3)CCC[C@]12C` [Compound C, 1,25-dihydroxy-21-(3-hydroxy-3-methylbutyl)-19-nor-cholecalciferol], the MTD in data set [1] is 3 µg/kg. The “lesion weight, treated versus control (vehicle only), statistical analysis” value in data set [2] is given as “no significant reduction in lesion weight”.

The values are drawn from patent US20080280860A1, “Use of Vitamin D Compounds to Treat Endometriosis” (BioXell S.p.A., priority 2005, published 2008).
